Reference: patent EP3723745B1, “PHENOXY ACIDS FOR THE TREATMENT OF NEUROMUSCULAR DISORDERS” (NMD Pharma A/S, priority 2017, dated 2019)

Key:
[1] = target: T1, CIC-1 channels (Rattus norvegicus, UniProt P35524); assay: Electrophysiological measurement of compound inhibition of CIC-1 in rat muscle (Gm, three micro-electrodes technique); type: cell-based; conditions: reduction of Gm in fibres of whole rat soleus muscles, approx. 30°C; n = number of experiments
T1 construct: from tissue; host or cells: intact soleus muscle of 12-14-week old Wistar rats
T1 sequence (P35524 1-994): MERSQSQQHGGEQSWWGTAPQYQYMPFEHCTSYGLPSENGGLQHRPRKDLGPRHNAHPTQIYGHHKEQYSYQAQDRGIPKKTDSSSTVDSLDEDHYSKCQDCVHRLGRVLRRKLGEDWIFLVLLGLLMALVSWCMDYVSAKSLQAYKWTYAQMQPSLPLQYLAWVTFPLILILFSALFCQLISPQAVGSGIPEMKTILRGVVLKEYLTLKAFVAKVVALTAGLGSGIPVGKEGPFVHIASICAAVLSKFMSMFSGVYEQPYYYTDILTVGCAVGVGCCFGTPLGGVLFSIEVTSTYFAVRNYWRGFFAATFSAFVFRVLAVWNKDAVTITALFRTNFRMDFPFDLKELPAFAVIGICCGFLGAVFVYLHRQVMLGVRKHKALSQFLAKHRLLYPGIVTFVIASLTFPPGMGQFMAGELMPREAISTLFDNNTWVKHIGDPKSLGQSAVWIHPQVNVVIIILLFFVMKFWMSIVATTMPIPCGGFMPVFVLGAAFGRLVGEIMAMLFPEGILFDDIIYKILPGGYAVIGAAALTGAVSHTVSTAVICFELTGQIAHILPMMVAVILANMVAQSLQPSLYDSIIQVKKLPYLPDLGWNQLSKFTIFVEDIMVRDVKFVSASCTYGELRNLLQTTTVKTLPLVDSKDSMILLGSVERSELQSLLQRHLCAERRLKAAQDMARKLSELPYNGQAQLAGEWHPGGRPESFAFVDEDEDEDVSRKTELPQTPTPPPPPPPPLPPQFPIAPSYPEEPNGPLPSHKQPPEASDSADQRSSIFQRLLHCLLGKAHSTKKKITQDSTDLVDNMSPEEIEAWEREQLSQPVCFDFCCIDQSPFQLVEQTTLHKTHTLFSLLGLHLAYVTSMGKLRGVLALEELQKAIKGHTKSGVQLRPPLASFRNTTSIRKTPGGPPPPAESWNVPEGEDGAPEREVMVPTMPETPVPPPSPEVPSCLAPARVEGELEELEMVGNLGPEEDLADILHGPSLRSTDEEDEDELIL
Source text: Table 2: Inhibition of CIC-1 ion channel using compounds of the invention

[2] = test system: soleus muscles; assay: Measurement of force in an in vitro model: isolated rat nerve-muscle preparation with tubocurarine; conditions: for activation at 50 µM: Rattus norvegicus, 40 min, percentage of initial force restored after 40 mins with 50 µM test compound, tubocurarine (115 nM) for 90 mins, read-out: Point increase
Protocol: Recovery of force is quantified as the percentage of the force prior to tubocurarine that is recovered by the compound.
The current invention relates to compounds that inhibit CIC-1 ion channels and increase muscle excitability and thereby improve muscle function in clinical conditions where muscle activation is failing. Such conditions result in loss of contractile function of skeletal muscle, weakness and excessive fatigue. In this series of experiments the compounds were tested for their ability to restore contractile function of isolated rat muscle when the neuromuscular transmission had been compromised akin to neuromuscular disorders.
Experimentally, soleus muscles from 4-5 wk old rats were isolated with the motor nerve remaining attached. The nerve-muscle preparations were mounted in experimental setups that enabled electrical stimulation of the motor nerve. Stimulation of the motor nerve led to activation of the muscle fibres and ensuing force production that was recorded.
After mounting the nerve-muscle preparation in the experimental setup, the contractile function of the muscle was initially assessed under the control conditions (Figure 2A). […] The experimental condition mimics the failing neuromuscular transmission in a range of neuromuscular disorders. After addition of tubocurarine the contractile force declined over the next 90 mins to 10-50 % of the control force. 50 µM of the test compound was then added and the contractile force recovered despite the continued presence of tubocurarine. To quantify the ability of the compound to restore force the percentage of the initial force that was restored was determined after 40 mins of compound exposure (Figure 2B) and the point increase is reported in Table 3. Table 3: Percentage increase of initial force that was restored using compounds of the invention

[3] = target: T2, human CIC-1 channels (Homo sapiens, UniProt P35523); assay: Automated patch-clamp on human CIC-1 expressed in CHO cells; type: cell-based; conditions: difference in half activation voltage, compound added intracellularly vs control cell patches; positive shift = CIC-1 inhibition
T2 construct: host or cells: CHO cells constitutively expressing human ClC-1
Protocol: The investigatory goal of these experiments was to evaluate how compounds affect the open probability and current amplitude of human CIC-1 channels expressed in CHO cells. Experiments were performed using an automated patch clamp system that allowed high throughput testing of whole cell patches together with both intracellular and extracellular addition of compound.
Automated whole cell patch clamp experiments were performed with the Qpatch 16 system (Sophion Bioscience, Ballerup, Denmark) at room temperature. Data acquisition and analysis were performed in the Qassay software (ver. 5.6, Odense).
To evoke CIC-1 currents in whole cell patches, the membrane potential was initially stepped from a holding potential of -30 mV to +60 mV for 100 ms and then to various test voltages (sweeps) ranging from +120 mV to -140 mV in steps of 20 mV for 300 ms. To obtain tail currents, the membrane potential was stepped to -100 mV after each test voltage for 300 ms and then relaxed to -30 mV for 2 sec between sweeps (Figure 3). I/V relationships for whole cell instant and steady state current amplitudes were obtained by plotting average current densities at the beginning and at the end of the 300 ms step against the membrane potential (Figure 4).
In order to determine the relative overall open probability (P0), the instantaneous tail currents were normalized to the maximal tail current obtained following the most positive voltage step and plotted against the test voltage. Plots of normalized tail currents from each whole cell patch were then fitted to a Boltzmann function allowing determination of half activation voltages (V1/2, Figure 5).
For automated patch clamp experiments extracellular solutions contained: 2 mM CaCl2, 1 mM MgCl2, 10 mM HEPES, 4 mM KCI, 145 mM NaCl, 10 mM Glucose, pH adjusted to 7.4 with NaOH (2 M). Osmolality adjusted to -320 using sucrose.
Intracellular solutions contained: 80 mM CsF, 60 mM CsCI, 5/1 mM KOH/EGTA, 10 mM HEPES, 10 mM NaCl, pH adjusted to 7.2 with NaOH (2 M). Osmolality adjusted to -320 mOsm using sucrose.
Cells used in patch clamp experiments were Chinese hamster ovary cells (CHO) constitutively expressing human CIC-1 channels. The amino acid sequence encoded by the cDNA used to create this cell line was identical to the translated sequence for GenBank accession number NM_000083.2. Cells were produced by Charles River (Catalogue CT6175, Cleveland OH, USA) in a cryopreserved format. Experiments were performed on the cells directly after thawing (3 × 10^6 cells used in each experiment).
To evaluate the compound effect on CIC-1, when applied directly to the intracellular side of the cell membrane, the half activation voltage, V1/2, was determined from whole cell patches with compound added to the intracellular solution and then compared to V1/2 determined from control cell patches with only vehicle added to the intracellular solution. Additionally, the effect of extracellular added compound was evaluated by determine V1/2 and steady state current amplitudes before and after exchanging the extracellular solution to contain compound.
The difference in half activation voltage of CIC-1 channels, ΔV1/2, was determined as the difference between the cell patches treated intracellularly with compound and control cells patches and is reported in Table 4 below. A positive shift in ΔV1/2 is reflecting CIC-1 channel inhibition by the tested compound. P-values of <0.05 is considered significant. […]

T2 sequence (P35523 whole entry): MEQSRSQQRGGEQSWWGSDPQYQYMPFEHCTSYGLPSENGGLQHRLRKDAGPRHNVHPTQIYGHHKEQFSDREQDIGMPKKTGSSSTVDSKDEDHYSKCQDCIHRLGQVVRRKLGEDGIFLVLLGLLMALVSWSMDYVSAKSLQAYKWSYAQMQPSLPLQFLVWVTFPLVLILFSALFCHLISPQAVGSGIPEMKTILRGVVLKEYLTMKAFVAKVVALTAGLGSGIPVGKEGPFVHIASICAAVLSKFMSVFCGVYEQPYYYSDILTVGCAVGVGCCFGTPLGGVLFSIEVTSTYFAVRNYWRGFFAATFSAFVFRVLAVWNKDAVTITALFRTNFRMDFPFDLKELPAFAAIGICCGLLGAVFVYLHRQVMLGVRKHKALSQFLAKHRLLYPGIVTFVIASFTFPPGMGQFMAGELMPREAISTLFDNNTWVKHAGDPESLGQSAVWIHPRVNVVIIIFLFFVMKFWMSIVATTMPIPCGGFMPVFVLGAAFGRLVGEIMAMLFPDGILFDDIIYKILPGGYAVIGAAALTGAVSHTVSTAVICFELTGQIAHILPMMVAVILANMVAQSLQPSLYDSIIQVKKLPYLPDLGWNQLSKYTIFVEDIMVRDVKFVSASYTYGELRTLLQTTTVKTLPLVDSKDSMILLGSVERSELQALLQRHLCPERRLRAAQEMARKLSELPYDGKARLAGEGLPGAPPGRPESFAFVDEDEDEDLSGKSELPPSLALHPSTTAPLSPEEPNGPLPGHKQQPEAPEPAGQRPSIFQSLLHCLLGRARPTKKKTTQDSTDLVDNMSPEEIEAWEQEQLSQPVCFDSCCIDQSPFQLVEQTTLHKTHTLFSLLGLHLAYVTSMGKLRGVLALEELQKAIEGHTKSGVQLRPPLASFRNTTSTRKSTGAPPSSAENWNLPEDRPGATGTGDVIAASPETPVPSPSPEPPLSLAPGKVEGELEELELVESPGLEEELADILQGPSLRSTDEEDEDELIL

Structure (SMILES) | EC50 [1] | ΔV1/2 [3] | activation at 50 µM [2] | average force (AUC) relative to initial force ([2]; 50 µM compound added after 90 min incubation in tubocurarine, 3 muscles (Figure 2))
CC(C)[C@@H](Oc1ccc(Br)cc1F)C(=O)O [Compound A-4, (2R)-2-(4-bromo-2-fluorophenoxy)-3-methylbutanoic acid] | > 80 µM |  |  | 
[2H]c1cc(Br)cc([2H])c1O[C@@H](C)C(=O)O [Compound A-6, (2S)-2-[4-bromo(2,6-^2H2)phenoxy]propanoic acid] |  | 13.0 mV | 44% | 
C[C@H](Oc1ccc(Br)cc1I)C(=O)O [Compound A-8, (2S)-2-(4-bromo-2-iodophenoxy)propanoic acid] |  | 9.4 mV |  | 
O=C(O)[C@@H](Oc1ccc(Br)cc1F)C(F)F [Compound A-9, (2R)-2-(4-bromo-2-fluorophenoxy)-3,3-difluoropropanoic acid] |  | 15.2 mV |  | 
O=C(O)[C@H](CF)Oc1ccc(Br)cc1F [Compound A-19, (2R)-2-(4-bromo-2-fluorophenoxy)-3-fluoropropanoic acid] |  |  |  | recovered
O=C(O)[C@H](CF)Oc1ccc(Br)cc1 [Compound A-26, (2R)-2-(4-bromophenoxy)-3-fluoropropanoic acid] | 3.8 ± 0.8 µM | 19.7 mV | 39% | 
C[C@@H](Oc1ccc(Br)cc1F)C(=O)O [Compound A-28, (2R)-2-(4-bromo-2-fluorophenoxy)propanoi c acid] |  |  | -8% | 
C[C@H](Oc1ccc(Cl)cc1F)C(=O)O [Compound A-38, (2S)-2-(4-chloro-2-fluorophenoxy)propanoi c acid] |  | 17.4 mV |  | 
C[C@H](Oc1ccc(Br)cc1Br)C(=O)O [Compound A-40, (2S)-2-(2,4-dibromophenoxy)propan oic acid] | 4.2 ± 0.6 µM | 5.19 mV | 20% | 
COC(=O)[C@H](C)Oc1ccc(Cl)cc1 [Compound A-54, methyl (2S)-2-(4-chlorophenoxy)propano ate] | 6.8 ± 1.3 µM |  |  | 
CC[C@H](Oc1ccc(Br)cc1F)C(=O)O [Compound A-58, (2S)-2-(4-bromo-2-fluorophenoxy)butanoic acid] | 6.3 ± 2.4 µM | 28.2 mV | 44% | 
[2H]CC([2H])[C@H](Oc1ccc(Br)cc1)C(=O)O (stereo partly drawn) [Compound A-76, (2S)-2-(4-bromophenoxy)(3,4-^2H2)butanoic acid] |  | 26.2 mV | 62% | 

The next lines start with results.

EC50 [1] | ΔV1/2 [3] | Structure (SMILES) | activation at 50 µM [2] | average force (AUC) relative to initial force ([2]; 50 µM compound added after 90 min incubation in tubocurarine, 3 muscles (Figure 2))
7.2 µM | 27.4 mV | C#CC[C@H](Oc1ccc(Br)cc1Br)C(=O)O [Compound A-66, (2S)-2-(2,4-dibromophenoxy)pent-4-ynoic acid] | 51% | 
9.4 ± 0.6 µM | 37.8 mV | C#CC[C@H](Oc1ccc(Br)cc1Cl)C(=O)O [Compound A-67, (2S)-2-(4-bromo-2-chlorophenoxy)pent-4-ynoic acid] | 40% | 
 | 32.6 mV | C#CC[C@H](Oc1ccc(Br)cc1F)C(=O)O [Compound A-69, (2S)-2-(4-bromo-2-fluorophenoxy)pent-4-ynoic acid] |  | 
10.1 ± 0.2 µM |  | O=C(O)[C@@H](Oc1ccc(Br)cc1Cl)C1CCC1 [Compound A-71, (2S)-2-(4-bromo-2-chlorophenoxy)-2-cyclobutylacetic acid] | 49% | 
7.2 µM |  | CC(C)[C@H](Oc1ccc(Br)cc1Cl)C(=O)O [Compound A-73, (2S)-2-(4-bromo-2-chlorophenoxy)-3-methylbutanoic acid] | 51% | 
4 ± 0.1 µM | 10.4 mV | COC[C@H](Oc1ccc(Br)cc1Br)C(=O)O [Compound A-74, (2S)-2-(2,4-dibromophenoxy)-3-methoxypropanoic acid] | 42% | 
7.6 ± 1.6 µM |  | CC[C@H](Oc1ccc(Br)cc1Cl)C(=O)O [Compound A-78, (2S)-2-(4-bromo-2-chlorophenoxy)butanoic acid] | 38% | 
 | 19.0 mV | [2H][C@@](CF)(Oc1ccc(Br)cc1)C(=O)O [Compound A-82, (2R)-2-(4-bromophenoxy)-3-fluoro(2-^2H)propanoic acid] | 48% | 
8 µM |  | O=C(O)[C@H](CCF)Oc1ccc(Br)cc1I [Compound A-83, (2S)-2-(4-bromo-2-iodophenoxy)-4-fluorobutanoic acid] | 35% | 
10 ± 9.5 µM | 12.5 mV | O=C(O)[C@H](CCF)Oc1ccc(Br)cc1F [Compound A-85, (2S)-2-(4-bromo-2-fluorophenoxy)-4-fluorobutanoic acid] | 37% | 
8.9 ± 3.2 µM |  | O=C(O)[C@@H](Oc1ccc(Br)cc1F)C1CCC1 [Compound A-86, (2S)-2-(4-bromo-2-fluorophenoxy)-2-cyclobutylacetic acid] | 45% | 
5.9 ± 1.6 µM |  | CC(C)[C@H](Oc1ccc(Br)cc1I)C(=O)O [Compound A-88, (2S)-2-(4-bromo-2-iodophenoxy)-3-methylbutanoic acid] | 55% | 
2.3 µM |  | CC[C@H](Oc1ccc(Br)cc1I)C(=O)O [Compound A-90, (2S)-2-(4-bromo-2-iodophenoxy)butanoic acid] | 57% | 
